According to patent US20240327334A1, “Covalent Inhibitors As Antiviral Agents” (Enanta Pharmaceuticals, Inc., priority 2022, published 2024):
pEC50, pIC50: −log10 of the molar value.

Key:
[1] = molecular target: SARS-CoV-2 Papain-like (PLpro) protease (Severe acute respiratory syndrome coronavirus 2, UniProt P0DTD1); experiment: SARS-CoV-2 Papain-like (PLpro) protease biochemical enzyme inhibition assay (ubiquitin-fluorophore substrate, Ub-R110); conditions: Ub-R110 substrate; run in duplicate; read-out: PLpro IC50
[2] = system: SARS-CoV-2 replicon; experiment: microbe, parasite or virus in culture; assay type: cell-based; conditions: Severe acute respiratory syndrome coronavirus 2, Huh-7

SMILES | pIC50 [1] | pEC50 [2]
Cn1cc2cc(C3(NC(=O)c4ccccc4CNC(=O)C(=O)NCC#Cc4nccs4)CC3)ccc2n1 [Example 337] | > 7.00 | > 6.00
C[C@@H](C#Cc1nccs1)NC(=O)C(=O)NCc1ccccc1C(=O)NC1(c2cc(F)cc(-c3cnn(C4COC4)c3)c2)CC1 [Example 254] | > 7.00 | > 6.00
COC(=O)/C=C/CNC(=O)C(=O)NCc1cccc(F)c1C(=O)N[C@H](C)c1cccc2ccccc12 [Example 28] | > 7.00 | > 6.00
O=C(NCC#Cc1ncc(F)cn1)C(=O)NCc1ccccc1C(=O)NC1(c2cc(F)cc(-c3cnn(C4CC4)c3)c2)CC1 [Example 248] | > 7.00 | > 6.00
O=C(NCC#Cc1cnccn1)C(=O)NCc1ccccc1C(=O)NC1(c2ccc3ccccc3c2)CC1 [Example 172] | > 7.00 | > 6.00
Cn1cc2cc(C3(NC(=O)c4ccccc4CNC(=O)C(=O)NCC#N)CC3)ccc2n1 [Example 341] | 6.00 to 7.00 | < 5.00
CC(C)OC(=O)/C=C/CNC(=O)C(=O)NCc1ccccc1C(=O)NC1(c2cccc3ccccc23)CC1 [Example 538] | 6.00 to 7.00 | 5.00 to 6.00
O=C(NCC#Cc1ncccn1)C(=O)NCc1ccccc1C(=O)NC1(c2ccc3ccccc3c2)CC1 [Example 168] | > 7.00 | > 6.00
N#C/C=C/CNC(=O)C(=O)NCc1ccccc1C(=O)NC1(c2ccc3c4c(cccc24)CC3)CC1 [Example 438] | > 7.00 | > 6.00
N#CN1CC(CNC(=O)C(=O)NCc2ccccc2C(=O)NC2(c3cc(F)cc(-c4cnn(C5CC5)c4)c3)CC2)C1 [Example 431] | 6.00 to 7.00 | 5.00 to 6.00
O=C(NCC#Cc1nccs1)C(=O)NCc1cccnc1C(=O)NC1(c2cc(F)cc(-c3cnn(C4CC4)c3)c2)CC1 [Example 84] | > 7.00 | > 6.00
N#CCNC(=O)C(=O)NCc1ccccc1C(=O)NC1(c2ccnc3cc(Cl)ccc23)CC1 [Example 423] | > 7.00 | 5.00 to 6.00
C#CCNC(=O)C(=O)NCc1ccccc1C(=O)NC1(c2cc(OC)c3nn(C4CC4)cc3c2)CC1 [Example 343] | > 7.00 | > 6.00
O=C(NCC#Cc1nccs1)C(=O)NCc1ccccc1C(=O)NC1(c2ccc3nc(C4CC4)ccc3c2)CC1 [Example 396] | > 7.00 | > 6.00
O=C(NCC#Cc1nccs1)C(=O)NCc1ccccc1C(=O)NC1(c2cc(Cl)cc(-c3cc4ccccc4s3)c2)CC1 [Example 443] | > 7.00 | > 6.00
Cc1cccnc1C#C[C@H](C)NC(=O)C(=O)NCc1ccccc1C(=O)NC1(c2ccc3nn(C)cc3c2)CC1 [Example 274] | > 7.00 | > 6.00
N#Cc1ccc(C#CCNC(=O)C(=O)NCc2ccccc2C(=O)NC2(c3ccc4ccccc4c3)CC2)nc1 [Example 190] | > 7.00 | > 6.00
N#CCNC(=O)C(=O)NCc1ccccc1C(=O)NC1(c2cc(Cl)cc(-c3cnco3)c2)CC1 [Example 451] | > 7.00 | 5.00 to 6.00
O=C(NCC#Cc1nccs1)C(=O)NCc1ccccc1C(=O)NC1(c2cccc3ccccc23)CC1 [Example 160] | > 7.00 | > 6.00
C#CCNC(=O)C(=O)NCc1ccccc1C(=O)NC1(c2ccc(OC)c(Br)c2)CC1 [Example 230] | > 7.00 | > 6.00

SMILES | pIC50 [1] | pEC50 [2]
N#CCNC(=O)C(=O)NCc1ccccc1C(=O)NC1(c2cccc(-c3ccc(F)cc3)c2)CC1 [Example 543] | 6.00 to 7.00 | < 5.00
COCc1ccc(-c2cc(C3(NC(=O)c4ccccc4CNC(=O)C(=O)NCC#N)CC3)c3ccccc3c2)s1 [Example 352] | > 7.00 | > 6.00
C#CCNC(=O)C(=O)NCc1ccccc1C(=O)NC1(c2cccc(-c3cnn(C4CC4)c3)c2Cl)CC1 [Example 381] | > 7.00 | > 6.00
C[C@@H](C#Cc1ncccc1CC#N)NC(=O)C(=O)NCc1ccccc1C(=O)NC1(c2ccc3nn(C)cc3c2)CC1 [Example 209] | > 7.00 | > 6.00
CC(C)(O)CCc1cc(C2(NC(=O)c3ccccc3CNC(=O)C(=O)NCC#N)CC2)c2ccccc2c1 [Example 424] | > 7.00 | 5.00 to 6.00
N#Cc1ccccc1C#CCNC(=O)C(=O)NCc1ccccc1C(=O)NC1(c2ccc3ccccc3c2)CC1 [Example 94] | > 7.00 | > 6.00
C#CCNC(=O)C(=O)NCc1ccccc1C(=O)NC1(c2ccc(F)c(-c3cnn(C)c3)c2)CC1 [Example 232] | > 7.00 | > 6.00
C#CCNC(=O)C(=O)NCc1ccccc1C(=O)NC1(c2ccc(OC)c(-c3cnn(C4CC4)c3)c2)CC1 [Example 245] | > 7.00 | > 6.00
C#CCNC(=O)C(=O)NCc1ccccc1C(=O)NC1(c2ccc(F)c(-c3cn(C)nc3C)c2)CC1 [Example 237] | > 7.00 | > 6.00
N#CCNC(=O)C(=O)NCc1ccccc1C(=O)NC1(c2cccc3nc(Cl)ccc23)CC1 [Example 386] | > 7.00 | > 6.00
Cn1cc2cc(C3(NC(=O)c4ccccc4CNC(=O)C(=O)NCC#Cc4ccccc4C#N)CC3)ccc2n1 [Example 104] | > 7.00 | > 6.00
Cc1cccnc1C#CCNC(=O)C(=O)NCc1ccccc1C(=O)NC1(c2cc(F)cc(-c3cnn(C4CC4)c3)c2)CC1 [Example 262] | > 7.00 | > 6.00
N#CCNC(=O)C(=O)NCc1cnccc1C(=O)NC1(c2cccc3ccccc23)CC1 [Example 366] | > 7.00 | 5.00 to 6.00
C#C[C@H](C)NC(=O)C(=O)NCc1ccccc1C(=O)NC1(c2cccc3ccccc23)CC1 [Example 156] | > 7.00 | > 6.00
N#CCNC(=O)C(=O)NCc1ccccc1C(=O)NC1(c2cc(C(F)(F)F)nc3ccccc23)CC1 [Example 90] | > 7.00 | 5.00 to 6.00
C#CCNC(=O)C(=O)NCc1ccccc1C(=O)NC1(c2cc(Cl)cc(-c3ccccc3F)c2)CC1 [Example 444] | > 7.00 | > 6.00
N#CCNC(=O)C(=O)NCc1ccc(OCCO)cc1C(=O)NC1(c2cccc3ccccc23)CC1 [Example 320] | > 7.00 | > 6.00
COc1cc(-c2cnn(C3CC3)c2)cc(C2(NC(=O)c3ccccc3CNC(=O)C(=O)NCC#Cc3nccs3)CC2)c1 [Example 246] | > 7.00 | > 6.00
C[C@@H](NC(=O)c1ccccc1CNC(=O)C(=O)NCC#N)c1cc(-c2ccco2)cc(C(F)(F)F)c1 [Example 467] | > 7.00 | > 6.00
COc1cccnc1C#CCNC(=O)C(=O)NCc1ccccc1C(=O)NC1(c2cc(F)cc(-c3cnn(C4CC4)c3)c2)CC1 [Example 261] | > 7.00 | > 6.00

SMILES | pIC50 [1] | pEC50 [2]
C#CCNC(=O)C(=O)NCc1ccccc1C(=O)NC1(c2cccc(-c3cccs3)c2Cl)CC1 [Example 383] | > 7.00 | > 6.00
N#CCNC(=O)C(=O)NCc1ccccc1C(=O)NC1(c2cc(-c3cnn(C4CC4)c3)cc3ccccc23)CC1 [Example 357] | > 7.00 | > 6.00
Cc1cccnc1C#C[C@H](C)NC(=O)C(=O)NCc1ccccc1C(=O)NC1(c2cc(F)cc(-c3cnn(C4CC4)c3)c2)CC1 [Example 266] | > 7.00 | > 6.00
O=C(NCC#Cc1ccc(F)cn1)C(=O)NCc1ccccc1C(=O)NC1(c2ccc3ccccc3c2)CC1 [Example 192] | > 7.00 | > 6.00
N#CCNC(=O)C(=O)NCc1ccccc1C(=O)NC1(c2cc(-c3cncs3)cc3ccccc23)CC1 [Example 349] | > 7.00 | > 6.00
N#C/C=C/CNC(=O)C(=O)NCc1ccccc1C(=O)NC1(c2cc(Br)cc3ccccc23)CC1 [Example 152] | > 7.00 | > 6.00
CC(C)(O)c1ccc(-c2cc(C3(NC(=O)c4ccccc4CNC(=O)C(=O)NCC#N)CC3)c3ccccc3c2)s1 [Example 354] | > 7.00 | > 6.00
C#CCNC(=O)C(=O)NCc1ccccc1C(=O)NC1(c2cc(Cl)cc(-c3cnc(C4CC4)nc3)c2)CC1 [Example 73] | > 7.00 | > 6.00
O=C(NCC#Cc1ncco1)C(=O)NCc1ccccc1C(=O)NC1(c2ccc3ccccc3c2)CC1 [Example 137] | > 7.00 | > 6.00
COC(=O)C#CCCNC(=O)C(=O)NCc1ccccc1C(=O)N[C@H](C)c1cccc2ccccc12 [Example 8] | > 7.00 | > 6.00
C#CCNC(=O)C(=O)NCc1ccccc1C(=O)NC1(c2cc(Cl)cc(-c3nnc(C)o3)c2)CC1 [Example 484] | > 7.00 | > 6.00
Cc1nn(C)c(C)c1-c1cc(C2(NC(=O)c3ccccc3CNC(=O)C(=O)NCC#Cc3nccs3)CC2)c2ccccc2c1 [Example 300] | > 7.00 | > 6.00
C#CCNC(=O)C(=O)NCc1ccccc1C(=O)NC1(c2cccc3cc(F)ccc23)CC1 [Example 56] | > 7.00 | > 6.00
COc1cccnc1C#C[C@H](C)NC(=O)C(=O)NCc1ccccc1C(=O)NC1(c2cc(F)cc(-c3cnn(C4CC4)c3)c2)CC1 [Example 265] | > 7.00 | > 6.00
N#CCNC(=O)C(=O)NCc1ccccc1C(=O)NC1(c2cc(C#N)cc(-c3cccs3)c2)CC1 [Example 127] | > 7.00 | 5.00 to 6.00
C#CCNC(=O)C(=O)NCc1ccccc1C(=O)NC1(c2cc(Cl)cc(-n3cccn3)c2)CC1 [Example 481] | 6.00 to 7.00 | 5.00 to 6.00
CN1CC(COc2ccc(CNC(=O)C(=O)NCC#N)c(C(=O)NC3(c4cccc5ccccc45)CC3)c2)C1 [Example 326] | > 7.00 | 5.00 to 6.00
C[C@@H](C#Cc1ncc(F)cn1)NC(=O)C(=O)NCc1ccccc1C(=O)NC1(c2cc(F)cc(-c3cnn(C4CC4)c3)c2)CC1 [Example 144] | > 7.00 | > 6.00
COc1cc(C#N)ccc1C#CCNC(=O)C(=O)NCc1ccccc1C(=O)NC1(c2ccc3ccccc3c2)CC1 [Example 88] | > 7.00 | > 6.00
N#CCNC(=O)C(=O)NCc1ccccc1C(=O)NC1(c2cc(-c3cccs3)cc3ccccc23)CC1 [Example 347] | > 7.00 | > 6.00
